The target in data set [1] is T1, rabbit reticulocyte 15-LO (Oryctolagus cuniculus, UniProt P12530).
T1 construct: Fifteen-lipoxygenase was obtained from phenylhydrazine-treated rabbits and purified per the method of Rapoport; from tissue; host or cells: reticulocytes of phenylhydrazine-treated rabbits
T1 sequence (P12530 1-663): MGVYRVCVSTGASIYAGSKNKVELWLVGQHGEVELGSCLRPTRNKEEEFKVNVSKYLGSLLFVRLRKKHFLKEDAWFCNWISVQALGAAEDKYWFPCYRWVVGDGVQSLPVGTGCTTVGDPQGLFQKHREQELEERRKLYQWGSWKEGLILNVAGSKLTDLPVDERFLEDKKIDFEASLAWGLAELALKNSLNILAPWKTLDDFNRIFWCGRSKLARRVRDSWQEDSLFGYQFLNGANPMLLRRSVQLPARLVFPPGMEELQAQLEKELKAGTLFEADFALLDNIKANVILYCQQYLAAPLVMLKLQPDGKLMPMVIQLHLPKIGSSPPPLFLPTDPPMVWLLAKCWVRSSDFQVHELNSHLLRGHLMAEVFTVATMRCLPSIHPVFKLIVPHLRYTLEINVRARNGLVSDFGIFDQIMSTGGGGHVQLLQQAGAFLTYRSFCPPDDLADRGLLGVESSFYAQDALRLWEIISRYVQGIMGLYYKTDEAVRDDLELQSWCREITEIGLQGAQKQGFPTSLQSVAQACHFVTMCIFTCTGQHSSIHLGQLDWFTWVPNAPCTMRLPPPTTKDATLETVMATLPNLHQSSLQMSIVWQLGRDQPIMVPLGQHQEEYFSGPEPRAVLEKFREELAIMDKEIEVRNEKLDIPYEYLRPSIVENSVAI
The data set can be described thus: Rabbit Reticulocyte 15-LO Assay (h15LO). As to conditions: Table 2; for IC50: 2U rabbit reticulocyte 15-LO, 174 μM linoleic acid, 15 minutes at 4° C.; for inhibition at 10 µM: 0.25 h, read-out: h15LO % @ 10 μM. In kind it is biochemical. The gist of the method:
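Linoleic acid oxidation to 13-HPODE measured at 4° C. over 15 minutes, using 174 μM substrate and 2U enzyme purified from phenylhydrazine-treated rabbits in PBS/0.2% Na cholate. Product peak areas calibrated with authentic 13-HODE; inhibition expressed versus maximal reaction.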

IC50, melting point and inhibition data for 27 molecules are collected here from patent US6528528B2 (Warner-Lambert Company, priority 1997, dated 2003).

Molecules are shown by their SMILES.

Take `COc1ccccc1Nc1cc(C(=O)Nc2ccccc2)ccc1OC` [Example 29, 3-(2-Methoxy-phenylamino)-4-methoxy-N-phenyl-benzamide]: the melting point (usually the temperature of the solid-liquid transition) fell in the range of 155 to 156 °C. For the same molecule, in data set [1], the IC50 – broadly, the concentration that gives 50% inhibition – is greater than 3000 nM.

On to `COc1ccc(C(=O)Nc2ccccc2)cc1Nc1cccc(Cl)c1` [Example 31, 3-(3-Chloro-phenylamino)-4-methoxy-N-phenyl-benzamide], for which the melting point is 168 to 170 °C. It took 10 nM to reach half-maximal inhibition in data set [1] (IC50).

For `COc1ccc(C(=O)Nc2ccccc2)cc1Nc1cccc(C)c1` [Example 32, 3-(3-Methyl-phenylamino)-4-methoxy-N-phenyl-benzamide], the melting point is 160 to 161 °C. Also, the IC50 in data set [1] worked out at 23 nM.

Consider `COc1ccc(C(=O)Nc2ccccc2)cc1Nc1cccc([N+](=O)[O-])c1` [Example 33, 3-(3-Nitro-phenylamino)-4-methoxy-N-phenyl-benzamide], for which the melting point fell in the range of 220 to 221 °C. The molecule also had an IC50 in data set [1] of 12 nM.

As to `COc1ccc(C(=O)Nc2ccccc2)cc1Nc1ccc(C)cc1` [Example 34, 3-(4-Methyl-phenylamino)-4-methoxy-N-phenyl-benzamide], the melting point is 187 to 188 °C. For the same molecule, half-maximal inhibition in data set [1] (IC50) was put at 29 nM.

Consider `COc1ccc(C(=O)Nc2ccccc2)cc1Nc1cc(C)cc(C)c1` [Example 36, 3-(3,5-Dimethyl-phenylamino)-4-methoxy-N-phenyl-benzamide], for which the melting point was in the range of 198 to 199 °C. This molecule also returned a concentration for half-maximal inhibition (IC50) in data set [1] of 11 nM.

For the molecule `O=C(Nc1ccccc1)c1ccc(F)c(Nc2ccccc2)c1` [Example 37, 3-Phenylamino-4-fluoro-N-phenyl-benzamide], the melting point fell in the range of 132 to 133 °C. Besides, the IC50 in data set [1] stood at 2940 nM.

Turning to `COc1ccc(C(=O)Nc2ccc(F)cc2)cc1Nc1ccccc1` [Example 39, 3-Phenylamino-4-methoxy-N-(4-fluorophenyl)-benzamide], the melting point fell in the range of 151 to 152 °C. In addition, the IC50 in data set [1] amounted to 50 nM.

Turning to `CCc1ccc(C(=O)Nc2ccccc2)cc1Nc1cccc(C(F)(F)F)c1` [Example 41, 4-Ethyl-3-(3-trifluoromethyl-phenylamino)-N-phenyl-benzamide], the melting point lay in the range of 133 to 134 °C. In data set [1], the inhibition at 10 µM was 65%.

Consider `CCOc1ccc(C(=O)Nc2ccccc2)cc1Nc1cccc(C(F)(F)F)c1` [Example 42, 4-Ethoxy-3-(3-trifluoromethyl-phenylamino)-N-phenyl-benzamide], for which the melting point lay in the range of 184 to 185 °C. It took 410 nM to reach half-maximal inhibition in data set [1] (IC50).

Molecule `CSc1ccc(C(=O)Nc2ccccc2)cc1Nc1cccc(C(F)(F)F)c1` [Example 43, 4-Methylsulfanyl-3-(3-trifluoromethyl-phenylamino)-N-phenyl-benzamide] returned a melting point of 169 to 170 °C. The molecule also displayed an IC50 in data set [1] of 73 nM.

With `COc1ccc(C(=O)Nc2ccccc2)cc1Nc1ccc(C2=NC(C)(C)CO2)cc1` [Example 44, 3-[4-(4,4-Dimethyl-4,5-dihydro-oxazol-2-yl)-phenylamino]-4-methoxy-N-phenyl-benzamide], the melting point was 221 to 222 °C. Besides, the IC50 in data set [1] worked out at 25 nM.

In the case of `COc1ccc(C(=O)Nc2cccnc2)cc1Nc1cccc(C(F)(F)F)c1` [Example 45, 4-Methoxy-3-(3-trifluoromethyl-phenylamino)-N-(3-pyridyl)-benzamide], the melting point lay in the range of 184 to 185 °C. Half-maximal inhibition in data set [1] (IC50) was put at 440 nM.

The molecule `COc1ccc(C(=O)Nc2ccc(F)cc2)cc1Nc1cc(C)cc(C)c1` [Example 46, 4-Methoxy-3-(3,5-dimethyl-phenylamino)-N-(4-fluorophenyl)-benzamide] registered a melting point of 199 to 200 °C. Moreover, the IC50 in data set [1] turned out to be 20 nM.

`COc1ccc(C(=O)Nc2ccc(F)c(F)c2)cc1Nc1cccc(C(F)(F)F)c1` [Example 48, 4-Methoxy-3-(3-trifluoromethyl-phenylamino)-N-(3,4-difluorophenyl)-benzamide]: the melting point lay within 166 to 169 °C. Besides, in data set [1], the IC50 is 28 nM.

`COc1ccc(C(=O)Nc2ccccc2)cc1NCc1ccccc1` [Example 50, 3-Benzylamino-4-methoxy-N-phenyl-benzamide] had a melting point of 164 to 165 °C. Further, it took 846 nM to reach half-maximal inhibition in data set [1] (IC50).

`COc1ccc(C(=O)Nc2ccccc2)cc1NCc1ccc(OC)c(OC)c1` [Example 52, 3-(3,4-Dimethoxy-benzylamino)-4-methoxy-N-phenyl-benzamide] registered a melting point of 187 to 188 °C. The inhibition at 10 µM in data set [1] was determined as 62%.

The molecule `O=C(Nc1ccccc1)c1cccc(Oc2ccccc2)c1` [Example 53, 3-Phenoxy-N-phenyl-benzamide] displayed a melting point of 111 to 112 °C. Also, the inhibition at 10 µM in data set [1] came out at 57%.

`COc1ccc(C(=O)Nc2ccccc2)cc1Oc1ccccc1` [Example 54, 3-Phenoxy-4-methoxy-N-phenyl-benzamide] displayed a melting point of 200 to 201 °C. Also, the inhibition at 10 µM in data set [1] came out at 60%.

`COc1ccc(C(=O)Oc2ccccc2)cc1Nc1ccccc1` [Example 55, 3-(Phenylamino)-4-methoxybenzoic Acid, Phenyl Ester] displayed a melting point of 130 to 131 °C. Moreover, the inhibition at 10 µM in data set [1] was 54%.

Molecule `COc1ccc(NC(=O)c2ccc(O)c(Nc3cc(Cl)cc(Cl)c3)c2)cc1` [Example 57, 3-(3,5-Dichloro-phenylamino)-4-hydroxy-N-(4-methoxyphenyl)-benzamide] had a melting point of 186 to 187 °C. In data set [1], this molecule gave an IC50 of 165 nM.

Consider `Cc1ccc(NC(=O)c2ccc(O)c(Nc3cc(Cl)cc(Cl)c3)c2)cc1` [Example 58, 3-(3,5-Dichloro-phenylamino)-4-hydroxy-N-(4-methylphenyl)-benzamide], for which the melting point was 179 to 183 °C. In data set [1], this molecule yielded an IC50 of 80 nM.

The molecule `COc1ccc(NC(=O)c2ccc(O)c(Nc3cc(Cl)cc(Cl)c3)c2)cc1O` [Example 59, 3-(3,5-Dichloro-phenylamino)-4-hydroxy-N-(3-hydroxy-4-methoxyphenyl)-benzamide] registered a melting point of 170 to 171 °C. Further, in data set [1], the IC50 was found to be 1460 nM.

The molecule `COc1ccc(C(=O)Nc2ccccc2)cc1NC(=S)Nc1cccc(Cl)c1` [Example 61, 3-[3-(3-Chlorophenyl)-thioureido]-4-methoxy-N-phenyl-benzamide] showed a melting point of 165 to 168 °C. Further, inhibition in data set [1] was half-maximal at 11 nM (IC50).

`COc1ccc(C(=O)Nc2ccccc2)cc1NC(=S)Nc1ccccc1` [Example 62, 4-Methoxy-N-phenyl-3-(3-phenyl-thioureido)-benzamide] returned a melting point of 174 to 176 °C. Inhibition in data set [1] was half-maximal at 70 nM (IC50).

Molecule `COc1ccc(C(=O)Nc2ccccc2)cc1NC(=S)Nc1ccc(C(F)(F)F)cc1` [Example 63, 4-Methoxy-N-phenyl-3-[3-(4-trifluoromethyl-phenyl)-thioureido]-benzamide] yielded a melting point of 194 to 196 °C. In data set [1], this molecule displayed an IC50 of 49 nM.

In turn, `COc1ccc(C(=O)Nc2ccccc2)cc1NC(=S)Nc1ccc(C(C)(C)C)cc1` [Example 64, 3-[3-(4-tert-Butyl-phenyl)-thioureido]-4-methoxy-N-phenyl-benzamide] gave a melting point of 198 to 200 °C. This molecule yielded a concentration for half-maximal inhibition (IC50) in data set [1] of 41 nM.
